Measured values from ChEMBL document CHEMBL3872227, “Discovery of novel xanthine compounds targeting DPP-IV and GPR119 as anti-diabetic agents” (Eur J Med Chem, 2016).

Key:
[1] = biological target: T1, Glucose-dependent insulinotropic receptor (Homo sapiens) (UniProt Q8TDV5); experiment: Agonist activity at CREB-LBD and GAL4-DBD fused human GPR119 expressed in HEK293 cells at 1 uM by luciferase reporter gene assay relative to AR231453; type: functional, cell-based
T1 sequence (whole entry): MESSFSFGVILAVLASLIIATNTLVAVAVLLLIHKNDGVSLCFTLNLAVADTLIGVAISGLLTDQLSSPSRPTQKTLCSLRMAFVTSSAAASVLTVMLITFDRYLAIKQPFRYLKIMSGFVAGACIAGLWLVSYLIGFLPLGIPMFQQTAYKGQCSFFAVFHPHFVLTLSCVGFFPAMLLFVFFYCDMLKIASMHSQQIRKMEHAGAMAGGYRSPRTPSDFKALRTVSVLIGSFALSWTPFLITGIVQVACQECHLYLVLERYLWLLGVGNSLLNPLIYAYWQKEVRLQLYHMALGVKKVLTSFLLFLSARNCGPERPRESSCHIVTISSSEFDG

[2] = biological target: T2, Glucose-dependent insulinotropic receptor (Homo sapiens, UniProt Q8TDV5); experiment: Agonist activity at CREB-LBD and GAL4-DBD fused human GPR119 expressed in HEK293 cells by luciferase reporter gene assay; type: functional, cell-based
T2 sequence (Q8TDV5 whole entry): T1 sequence (whole entry)

[3] = biological target: Dipeptidyl peptidase 8/9 (Homo sapiens) (UniProt Q6V1X1+Q86TI2); experiment: Inhibition of full length recombinant human DPP-8/9 expressed in HEK293 cells at 10 uM incubated for 1 hr; type: cell-based
[4] = Metabolic stability in mouse liver microsomes at 1 umol/L after 30 mins by LC/MS/MS method; type: ADME; settings: 0.5 h, 1 µM

Sequence of Dipeptidyl peptidase 8/9 (Homo sapiens) (Q6V1X1 whole entry, looked up): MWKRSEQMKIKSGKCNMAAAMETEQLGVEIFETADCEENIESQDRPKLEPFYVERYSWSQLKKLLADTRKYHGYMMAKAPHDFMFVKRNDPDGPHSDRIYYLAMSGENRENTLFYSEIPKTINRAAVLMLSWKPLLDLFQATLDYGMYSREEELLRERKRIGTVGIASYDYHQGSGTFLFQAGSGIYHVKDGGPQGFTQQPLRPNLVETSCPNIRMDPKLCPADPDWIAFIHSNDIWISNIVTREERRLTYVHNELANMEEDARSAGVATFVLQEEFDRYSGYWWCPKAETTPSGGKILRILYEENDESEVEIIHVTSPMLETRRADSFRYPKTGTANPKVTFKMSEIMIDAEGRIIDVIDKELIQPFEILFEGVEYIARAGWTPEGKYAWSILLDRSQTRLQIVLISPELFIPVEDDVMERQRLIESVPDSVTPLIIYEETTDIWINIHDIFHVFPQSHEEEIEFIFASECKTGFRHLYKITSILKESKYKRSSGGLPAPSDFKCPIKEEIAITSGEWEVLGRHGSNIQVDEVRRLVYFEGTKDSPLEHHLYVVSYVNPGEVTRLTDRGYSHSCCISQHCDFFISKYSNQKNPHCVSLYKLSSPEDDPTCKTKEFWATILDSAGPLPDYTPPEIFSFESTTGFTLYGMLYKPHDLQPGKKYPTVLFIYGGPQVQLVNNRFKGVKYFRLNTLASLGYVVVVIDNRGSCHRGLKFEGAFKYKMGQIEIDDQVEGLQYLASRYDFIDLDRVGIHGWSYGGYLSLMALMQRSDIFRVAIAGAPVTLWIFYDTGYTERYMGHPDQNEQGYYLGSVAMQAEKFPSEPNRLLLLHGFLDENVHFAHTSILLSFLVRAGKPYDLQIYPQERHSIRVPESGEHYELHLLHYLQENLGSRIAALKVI
Sequence of Dipeptidyl peptidase 8/9 (Homo sapiens) (Q86TI2 whole entry, looked up): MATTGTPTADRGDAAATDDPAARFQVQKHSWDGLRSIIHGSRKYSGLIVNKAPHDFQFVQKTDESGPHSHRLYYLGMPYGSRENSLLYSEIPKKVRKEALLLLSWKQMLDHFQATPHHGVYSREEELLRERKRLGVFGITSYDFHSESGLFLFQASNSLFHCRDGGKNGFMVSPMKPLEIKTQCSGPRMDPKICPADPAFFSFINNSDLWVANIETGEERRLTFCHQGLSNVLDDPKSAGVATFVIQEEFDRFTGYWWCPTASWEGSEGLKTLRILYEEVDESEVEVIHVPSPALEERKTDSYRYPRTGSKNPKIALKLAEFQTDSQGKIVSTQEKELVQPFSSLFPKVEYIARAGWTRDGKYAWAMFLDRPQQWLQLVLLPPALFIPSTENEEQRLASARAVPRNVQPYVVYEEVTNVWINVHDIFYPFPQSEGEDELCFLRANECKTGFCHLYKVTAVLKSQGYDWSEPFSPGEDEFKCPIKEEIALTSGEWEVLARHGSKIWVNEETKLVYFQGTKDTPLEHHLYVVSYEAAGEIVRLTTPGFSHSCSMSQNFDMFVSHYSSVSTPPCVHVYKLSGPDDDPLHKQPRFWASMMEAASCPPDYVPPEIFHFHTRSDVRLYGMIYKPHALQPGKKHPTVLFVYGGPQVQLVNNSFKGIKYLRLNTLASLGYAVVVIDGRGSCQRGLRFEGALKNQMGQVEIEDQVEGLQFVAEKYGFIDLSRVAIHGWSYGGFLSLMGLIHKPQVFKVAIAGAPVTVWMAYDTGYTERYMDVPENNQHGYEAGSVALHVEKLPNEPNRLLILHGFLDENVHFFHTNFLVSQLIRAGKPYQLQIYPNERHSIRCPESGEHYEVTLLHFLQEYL

SMILES	Activity [1] [%]	EC50 [2] [µM]	inhibition [3] [%]	Stability [4]
CC(C)c1noc(C2CCN(c3ncnc(Nc4ccc(S(C)(=O)=O)cc4F)c3[N+](=O)[O-])CC2)n1		0.7		
CC#CCn1c(N2CCCNCC2)nc2c1c(=O)n(CCCN1CCC(C(=O)OC(C)C)CC1)c(=O)n2C	69.6		22.5	
CC#CCn1c(N2CCC[C@@H](N)C2)nc2c1c(=O)n(CCCN1CCC(C(=O)Nc3ccc(C#N)cc3)CC1)c(=O)n2C	68.8			
CC#CCn1c(N2CCC[C@@H](N)C2)nc2c1c(=O)n(CCCC1CCN(C(=O)OC(C)C)CC1)c(=O)n2C	66.1		36.8	
CC#CCn1c(N2CCC[C@@H](N)C2)nc2c1c(=O)n(CCCN1CCC(C(=O)Nc3ccc(Br)cc3)CC1)c(=O)n2C	27.9			
CC#CCn1c(N2CCC[C@@H](N)C2)nc2c1c(=O)n(CC1CCN(C(=O)OC(C)C)CC1)c(=O)n2C	79.3	1.9	0	
CC#CCn1c(N2CCC[C@@H](N)C2)nc2c1c(=O)n(CCCCC1CCN(C(=O)OC(C)C)CC1)c(=O)n2C	61.8		31.6	
CC#CCn1c(N2CCC[C@@H](N)C2)nc2c1c(=O)n(CCCN1CCC(C(=O)Nc3ccc(OC)cc3)CC1)c(=O)n2C	44.4			
CC#CCn1c(N2CCC[C@@H](N)C2)nc2c1c(=O)n(CCCN1CCC(C(=O)Nc3ccc(F)cc3)CC1)c(=O)n2C	16.2			
CC#CCn1c(N2CCC[C@@H](N)C2)nc2c1c(=O)n(CCCN1CCC(C(=O)Nc3ccccc3)CC1)c(=O)n2C	81.5	0.95	36.8	Stable
CC#CCn1c(N2CCC[C@@H](N)C2)nc2c1c(=O)n(CCCN1CCC(C(=O)Nc3ccc(Cl)cc3)CC1)c(=O)n2C	18.9			
CC#CCn1c(N2CCC[C@@H](N)C2)nc2c1c(=O)n(CCC1CCN(C(=O)OC(C)C)CC1)c(=O)n2C	69.8		10.5	

The remaining lines, values ahead:

Activity [1] [%]	EC50 [2] [µM]	inhibition [3] [%]	Stability [4]	SMILES
29.9				CC#CCn1c(N2CCC[C@@H](N)C2)nc2c1c(=O)n(CCCN1CCC(C(=O)OC3CCCCC3)CC1)c(=O)n2C
36.5				CC#CCn1c(N2CC(N)C2)nc2c1c(=O)n(CCCN1CCC(C(=O)OC(C)C)CC1)c(=O)n2C
54.8				CC#CCn1c(N2CCC[C@@H](N)C2)nc2c1c(=O)n(CCCN1CCC(C(=O)OC3CCC3)CC1)c(=O)n2C
26.2				CC#CCn1c(N2CCC[C@@H](N)C2)nc2c1c(=O)n(CCCN1CCC(C(=O)Nc3ccc(C)cc3)CC1)c(=O)n2C
54.2				CC#CCn1c(N2CCC[C@@H](N)C2)nc2c1c(=O)n(CCN1CCC(C(=O)OC(C)C)CC1)c(=O)n2C
9.8				CC#CCn1c(N2CCC[C@@H](N)C2)nc2c1c(=O)n(CCCCN1CCC(C(=O)OC(C)C)CC1)c(=O)n2C
60.4		16		CC#CCn1c(N2CCC[C@@H](N)C2)nc2c1c(=O)n(CCCN1CCC(C(=O)OC(C)C)CC1)c(=O)n2C
42.7				CC#CCn1c(N2CCC[C@@H](N)C2)nc2c1c(=O)n(CCCN1CCC(C(=O)OC3CCCC3)CC1)c(=O)n2C
31.9				CC#CCn1c(N2CCC[C@@H](N)C2)nc2c1c(=O)n(CCCN1CCC(C(=O)OCCC)CC1)c(=O)n2C
70.7		26.3		CC#CCn1c(N2CCC[C@@H](N)C2)nc2c1c(=O)n(CCCN1CCC(C(=O)Oc3ccccc3)CC1)c(=O)n2C
61.3		38.1		CC#CCn1c(N2CCC[C@@H](N)C2)nc2c1c(=O)n(CCCN1CCC(C(=O)N(C)C)CC1)c(=O)n2C
63.9				CC#CCn1c(N2CC[C@@H](N)C2)nc2c1c(=O)n(CCCN1CCC(C(=O)OC(C)C)CC1)c(=O)n2C
14.5				CC#CCn1c(N2CCC(N)CC2)nc2c1c(=O)n(CCCN1CCC(C(=O)OC(C)C)CC1)c(=O)n2C
51.4		12.5		CC#CCn1c(N2CCC[C@@H](N)C2)nc2c1c(=O)n(CCCN1CCC(C(=O)OCC)CC1)c(=O)n2C
74.5		21.1		CC#CCn1c(N2CCC[C@@H](N)C2)nc2c1c(=O)n(CCCN1CCC(C(=O)OC)CC1)c(=O)n2C
